These results are taken from ChEMBL document CHEMBL1128105, “Synthesis of new azino fused benzimidazolium salts. a new family of DNA intercalating agents. I” (Bioorg Med Chem Lett, 1995).

Each structure is given as a SMILES string.

This assay relates to HT-29. As to the kind of experiment: In vitro inhibitory activity against colon carcinoma HT-29 cells after 72 hr using in-house program. The class given is functional, cell-based. The following applies: Homo sapiens, HT-29, 72 h.

By EC50 is commonly meant the concentration needed to bring the measured effect to its halfway point. A lower EC50 goes with greater potency. Compound `c1ccc(Cn2c3ccccc3[n+]3nc4c(cc23)-c2cccc3cccc-4c23)cc1` yielded an EC50 of 1.5 µM.
The result for `c1ccc(Cn2c3ccccc3[n+]3nc4c(c(-c5ccccc5)c23)-c2cccc3cccc-4c23)cc1` reads 3.7 µM; that for `Cn1c2ccccc2[n+]2nc3c(cc12)-c1cccc2cccc-3c12`, 3.7 µM; that for `COC(=O)c1ccc(Cn2c3ccccc3[n+]3nc4c(cc23)-c2cccc3cccc-4c23)cc1`, 24 µM.
The result for `CCOC(=O)c1c2c(cc3n(Cc4ccccc4)c4ccccc4[n+]13)-c1cccc3cccc-2c13` reads 2.1 µM; that for `NCCNC(=O)Cn1c2ccccc2[n+]2nc3c(cc12)-c1cccc2cccc-3c12`, > 100 µM; that for `Nn1c2ccccc2[n+]2nc3c(cc12)-c1cccc2cccc-3c12`, 37 µM.
The result for `CCOC(=O)Cn1c2ccccc2[n+]2nc3c(cc12)-c1cccc2cccc-3c12` reads 54 µM; that for `CCOC(=O)Cn1c2ccccc2[n+]2c(C(=O)OCC)c3c(cc12)-c1cccc2cccc-3c12`, 1.8 µM.
